Measured values taken from article PMC8880385 (Pharmaceuticals, 2022).

How the values were obtained:
O. volvulus pre-adult L5 [1] = assay: Ov L5 viability by endpoint MTT assay; assay type: cell-based, Onchocerca volvulus; details: 1 µM
Method: Briefly, Ov L3 larvae were cultured to the pre-adult/L5 stage in vitro as described by Voronin et al., 2019 [45]. Once larvae reached the L5 stage (after at least 70 days in culture), 8–10 Ov L5 were moved to new transwell inserts in a 24-well plate containing 0.5 mL Ov L4-CMS media seeded with a 3 × 10^4/well Human Umbilical Vein Endothelial Cells (HUVEC) monolayer. Duplicate wells were treated with 1 and/or 10 µM of compound. Ov L5 were exposed to compounds for 14 days (exchanged 50% of media with fresh compound every two days) and then cultured with new media without compound, exchanging 50% of media every 2–3 days, up to day 36. Control Ov L5 were treated with 0.05% DMSO. […] Motility was assessed visually and ranked on a 0–100% scale every 2–3 days over the course of the assay. At the end of the motility assay, Ov L5 viability was measured by 3-(4,5-dimethylthiazol-2-yl)-2,5-diphenyltetrazolium bromide (MTT) assay. Ov L5 were incubated with 0.1% MTT in PBS at 37 °C for 1 h then visually inspected for blue coloration indicating MTT reduction. Worms were considered dead if <50% of the worm was stained blue, and worms were considered alive if >50% of the worm was stained blue.

[2] = Gerbil liver microsome stability assay; assay type: in vitro ADME; details: for CLint: gerbil liver microsomes; for half-life at 1 µM: pH 7.4, 1 µM compound, 0.5 mg/mL microsomes, read-out: Gerbil Liver Microsome T1/2
Method: Microsomal stability was tested using 1 µM of each test compound in a 96-well plate containing 0.5 mg/mL gerbil liver microsomes, 1 mM NADPH and/or UDPGA with alamethicin in a buffer of 100 mM potassium phosphate with 3 mM magnesium chloride at pH 7.4. Verapamil was used as a positive control. Reactions were incubated at 37 °C, and 100% acetonitrile with 0.1% formic acid was added at 0, 15, 30 and 60 min timepoints to stop the reaction. Samples were then separated over a Waters Atlantis T3 dC18 reverse phase HPLC column with 0.1% formic acid in water and 0.1% formic acid in acetonitrile. Samples were analyzed using an AB Sciex API 4000 LC–MS/MS.

O. ochengi mf = assay: O. ochengi microfilariae motility assay; assay type: cell-based, Onchocerca ochengi; details: 10 µM; for inhibition at 10 µM: Onchocerca ochengi, 120 h, Day 5
Method: (§1) To assess the effects of the compounds on O. ochengi mf, the mf were harvested from infected cow skin and cultured (10–15 mf per well) in 100 µL media in 96-well plates with a confluent feeder layer of monkey kidney epithelial cells (MK2) as previously described. […] All compounds were also counter-screened with L. loa mf collected from infected individuals with approval from the University of Buea (IRB approval # 964-19). Mf were separated from blood cells using a Percoll gradient as previously described and set up for assays (10–15 mf per well).

O. ochengi adult females = assay: O. ochengi adult female viability (MTT) assay; assay type: cell-based; details: Onchocerca ochengi, 168 h; Day 7, MTT; read-out: O. ochengi Adult Females Inhibition of Survival Day 7 IC50
Excerpt: (§2) As humans are the only hosts for O. volvulus which are unavailable for screening, drug discovery relies on the surrogate filarial parasites Brugia spp. and cattle Onchocerca spp. Prioritized compounds from the Brugia worm screens were further tested with female and male adult O. ochengi as well as O. ochengi and L. loa mf.
(§3) For these assays, O. ochengi adults were extracted from the subcutaneous nodules of infected cow skins purchased from the local slaughterhouse (Douala, Littoral Region, Cameroon) and incubated in 4 mL complete culture media comprised of RPMI-1640 (Sigma-Aldrich), 5% newborn calf serum, 200 units/mL penicillin, 200 μg/mL streptomycin and 2.5 μg/mL amphotericin B (Sigma-Aldrich) in 12-well plates overnight to validate sterility prior to the assays. Four to eight O. ochengi adult masses were treated individually the following day with a serial dilution of each compound, and controls were treated with 1% DMSO. While in culture, the male worms normally egress from the nodules into the surrounding media and thus can be monitored in parallel for motility. The O. ochengi adult masses were incubated at 37 °C with 5% CO2 for the duration of the assay. Male motility within each well was visually scored every day and over 5 days after compound addition, and female viability within the nodules was assessed by MTT after 7 days as previously described. The O. ochengi adult masses containing female worms were individually placed in wells of a 48-well plate with 0.5 mL of 0.5 mg/mL MTT in PBS and incubated at 37 °C for 30 min. […] Prism 4.0 for Windows was used to calculate IC50s.

O. volvulus pre-adult L5 [3] = assay: O. volvulus pre-adult (Ov L5) motility assay; assay type: cell-based, Onchocerca volvulus; details: Onchocerca volvulus
Method: O. volvulus adult male and female worms, which can only be obtained from infected individuals, are not readily accessible for ex vivo studies. Moreover, since there is no small animal model that can maintain infections by O. volvulus, a recently developed in vitro system was used to evaluate the macrofilaricidal effects on pre-adult worms. All compounds except for 04 were tested in this O. volvulus pre-adult/L5 motility and viability assay.
Briefly, Ov L3 larvae were cultured to the pre-adult/L5 stage in vitro as described by Voronin et al., 2019 [45]. Once larvae reached the L5 stage (after at least 70 days in culture), 8–10 Ov L5 were moved to new transwell inserts in a 24-well plate containing 0.5 mL Ov L4-CMS media seeded with a 3 × 10^4/well Human Umbilical Vein Endothelial Cells (HUVEC) monolayer. Duplicate wells were treated with 1 and/or 10 µM of compound. Ov L5 were exposed to compounds for 14 days (exchanged 50% of media with fresh compound every two days) and then cultured with new media without compound, exchanging 50% of media every 2–3 days, up to day 36. Control Ov L5 were treated with 0.05% DMSO. Concentrations were chosen based on activity in the B. pahangi female motility assay. Motility was assessed visually and ranked on a 0–100% scale every 2–3 days over the course of the assay. At the end of the motility assay, Ov L5 viability was measured by 3-(4,5-dimethylthiazol-2-yl)-2,5-diphenyltetrazolium bromide (MTT) assay. Ov L5 were incubated with 0.1% MTT in PBS at 37 °C for 1 h then visually inspected for blue coloration indicating MTT reduction. Worms were considered dead if <50% of the worm was stained blue, and worms were considered alive if >50% of the worm was stained blue.

[4] = test system: Brugia pahangi adult females; assay: In vitro motility assay with adult female Brugia pahangi (Worminator); details: for IC50 / inhibition at 1 µM: Brugia pahangi, 72 h; for IC50: read-out: Brugia Adult Females Inhibition of Motility Day 3 IC50; for inhibition at 1 µM: read-out: Brugia Adult Females Inhibition of Motility Day 3 @ 1 µM, 1 µM, Day 3
Loa loa mf = assay: Loa loa microfilariae motility counter-screen; assay type: cell-based; details: for inhibition at 10 µM: Loa loa, 120 h, Day 5
Method: as §1

in vitro = details: dog, MDCK-MDR1
Method: Permeability assays were conducted using 5 µM of each test compound with digoxin as a control. […] electrical resistance was used to verify the integrity of the MDCK-MDR1 monolayer. After compound addition, plates were incubated at 37 °C with 5% CO2 for 1 h. Samples were analyzed by LC–MS/MS and net flux ratio was calculated using basal-to-apical and apical-to-basal permeability.

O. ochengi adult males = assay: O. ochengi adult male motility assay; assay type: cell-based; details: Onchocerca ochengi, 120 h; for IC50: read-out: O. ochengi Adult Males Inhibition of Motility Day 5 IC50; for inhibition at 10 µM: single concentration 10 µM, read-out: O. ochengi Adult Males Inhibition of Motility Day 5
Excerpt: as §2
as §3, with “min. Female viability was visually rated by the degree of formazan production (live worms have blue coloration) in the female worm within the treated nodule versus control worm masses.” for “min.”

[5] = Day 36 @ 1 µM, 14 days drug then washout

Cc1cc(/C=C/c2ccc3ccccc3[n+]2C)c(C)n1-c1ccccc1.[I-] [Analog 01, 2-[(E)-2-(2,5-dimethyl-1-phenyl-1H-pyrrol-3-yl)ethenyl]-1-methylquinolin-1-ium iodide]
O. volvulus L5 % inhibition of viability Day 37 (MTT assay) (O. volvulus pre-adult L5 [1]): 87% | CLint [2]: 610.8 µL/min/mg Protein | half-life at 1 µM [2]: 2.3 min | O. ochengi Mf Inhibition of Motility Day 5 @ 10 µM (O. ochengi mf): completely inhibited | inhibition at 10 µM (O. ochengi mf): 100% | IC50 (O. ochengi adult females): 790 nM | inhibition at 1 µM (O. volvulus pre-adult L5 [3]; [5]): > 90% | Brugia Adult Females Inhibition of Motility Day 3 @ 1 µM [4]: 99% | IC50 [4]: 8 nM | Brugia Adult Females Inhibition of Motility Day 3 IC50 [4]: sub-micromolar range | Loa loa Mf Inhibition of Motility Day 5 @ 10 µM (Loa loa mf): completely inhibited | inhibition at 10 µM (Loa loa mf): 100% | Papp A→B (in vitro): 0.1 ×10⁻⁶ cm/s | Papp B→A (in vitro): 61.3 ×10⁻⁶ cm/s | IC50 (O. ochengi adult males): 960 nM

Cc1ccc2c(ccc(/C=C/c3cc(C)n(-c4ccccc4)c3C)[n+]2C)c1.[I-] [Analog 02, 2-[(E)-2-(2,5-dimethyl-1-phenyl-1H-pyrrol-3-yl)ethenyl]-1,6-dimethylquinolin-1-ium iodide]
CLint [2]: 541.8 µL/min/mg Protein | half-life at 1 µM [2]: 2.6 min | O. ochengi Mf Inhibition of Motility Day 5 @ 10 µM (O. ochengi mf): completely inhibited | inhibition at 10 µM (O. ochengi mf): 100% | IC50 (O. ochengi adult females): 700 nM | inhibition at 1 µM (O. volvulus pre-adult L5 [3]; 384 h, Day 16 @ 1 µM, assay stopped on day 16 (contamination)): 90% | inhibition at 1 µM (O. volvulus pre-adult L5 [3]; [5]): > 90% | Brugia Adult Females Inhibition of Motility Day 3 @ 1 µM [4]: 83% | inhibition at 1 µM [4]: > 70% | IC50 [4]: 1 nM | Brugia Adult Females Inhibition of Motility Day 3 IC50 [4]: sub-micromolar range | Loa loa Mf Inhibition of Motility Day 5 @ 10 µM (Loa loa mf): completely inhibited | inhibition at 10 µM (Loa loa mf): 100% | Papp A→B (in vitro): 0.1 ×10⁻⁶ cm/s | Papp B→A (in vitro): 51.2 ×10⁻⁶ cm/s | IC50 (O. ochengi adult males): 3080 nM

Cc1c(/C=C/c2ccc3ccccc3[n+]2C)cnn1-c1ccccc1.[I-] [Analog 03, 1-methyl-2-[(E)-2-(5-methyl-1-phenyl-1H-pyrazol-4-yl)ethenyl]quinolin-1-ium iodide]
CLint [2]: 280.2 µL/min/mg Protein | half-life at 1 µM [2]: 4.9 min | O. ochengi Mf Inhibition of Motility Day 5 @ 10 µM (O. ochengi mf): little to no effect | inhibition at 10 µM (O. ochengi mf): 0% | IC50 (O. ochengi adult females): 5180 nM | inhibition at 10 µM (O. volvulus pre-adult L5 [3]; 672 h, Day 28 @ 10 µM): 97% | inhibition at 1 µM [4]: 3% | Loa loa Mf Inhibition of Motility Day 5 @ 10 µM (Loa loa mf): little to no effect | inhibition at 10 µM (Loa loa mf): 13% | Papp A→B (in vitro): 1.3 ×10⁻⁶ cm/s | Papp B→A (in vitro): 9.1 ×10⁻⁶ cm/s | IC50 (O. ochengi adult males): 1540 nM

C[n+]1c(/C=C/c2cnn(-c3ccccc3)c2)ccc2ccccc21.[I-] [Analog 04, 1-methyl-2-[(E)-2-(1-phenyl-1H-pyrazol-4-yl)ethenyl]quinolin-1-ium iodide]
O. ochengi Mf Inhibition of Motility Day 5 @ 10 µM (O. ochengi mf): little to no effect | inhibition at 10 µM (O. ochengi mf): 0% | inhibition at 1 µM [4]: 26% | Loa loa Mf Inhibition of Motility Day 5 @ 10 µM (Loa loa mf): little to no effect | inhibition at 10 µM (Loa loa mf): 38% | inhibition at 10 µM (O. ochengi adult males): 100%

Cc1nn(-c2ccccc2)c(C)c1/C=C/c1ccc2ccccc2[n+]1C.[I-] [Analog 05, 2-[(E)-2-(3,5-dimethyl-1-phenyl-1H-pyrazol-4-yl)ethenyl]-1-methylquinolin-1-ium iodide]
O. volvulus L5 % inhibition of viability Day 37 (MTT assay) (O. volvulus pre-adult L5 [1]): 76% | CLint [2]: 179.88 µL/min/mg Protein | half-life at 1 µM [2]: 7.7 min | O. ochengi Mf Inhibition of Motility Day 5 @ 10 µM (O. ochengi mf): little to no effect | inhibition at 10 µM (O. ochengi mf): 0% | inhibition at 1 µM (O. volvulus pre-adult L5 [3]; [5]): > 90% | Brugia Adult Females Inhibition of Motility Day 3 @ 1 µM [4]: 81% | inhibition at 1 µM [4]: > 70% | IC50 [4]: 405 nM | Brugia Adult Females Inhibition of Motility Day 3 IC50 [4]: sub-micromolar range | Loa loa Mf Inhibition of Motility Day 5 @ 10 µM (Loa loa mf): little to no effect | inhibition at 10 µM (Loa loa mf): 38% | Papp A→B (in vitro): 0.7 ×10⁻⁶ cm/s | Papp B→A (in vitro): 6.8 ×10⁻⁶ cm/s | inhibition at 10 µM (O. ochengi adult males): 86%
